Publication PMC5459475 (2017)
Each block holds one compound with its values, some of them ahead of it.

Key:
[1] = tested on: 6-FAM-CUG23 (RNA, repeat) CUGCUGCUGCUGCUGCUGCUGCUGCUGCUGCUGCUGCUGCUGCUGCUGCUGCUGCUGCUGCUGCUGCUG; assay: fluorescence polarization; settings: 250 mM NaCl, 50 μM ZnCl2, 50 mM Tris-HCl pH 7.0, 10% glycerol, 1 mM DTT, on ice, RNA 6 nM
[2] = tested on: (CUG)12 RNA (CUGexp) (RNA, repeat) CUGCUGCUGCUGCUGCUGCUGCUGCUGCUGCUGCUG; assay: direct fluorescence titration; settings: log K; fitted with HypSpec; buffer of the direct titration not stated separately

binding ([1]; pentamidine-like polarization at 37.5 μM): yes
SMILES: CC(=O)Nc1cccc(NC(=O)c2csc(NC(=O)c3ccc(Cl)cc3)n2)c1

binding ([1]; saturated at 250 μM): yes
SMILES: CC1Cc2c(N)nc(NCc3ccc(CNc4nc(N)c5c(n4)NC(=O)C(C)C5)cc3)nc2NC1=O (stereo not shown)

binding constant [2]: 6.5(1) logarithmic units
SMILES: CN1C(=Cc2cc[n+](C)c3ccccc23)Sc2ccccc21

binding ([1]; 100 μM pentamidine positive control): yes
SMILES: N=C(N)c1ccc(OCCCCCOc2ccc(C(=N)N)cc2)cc1
